Data from patent US20230025807A1 (priority 2019, published 2023).

Biological target: T1, Human CD38 (Homo sapiens, UniProt P28907)
T1 construct: purchased BPS Bioscience 79287
T1 sequence (P28907 1-300): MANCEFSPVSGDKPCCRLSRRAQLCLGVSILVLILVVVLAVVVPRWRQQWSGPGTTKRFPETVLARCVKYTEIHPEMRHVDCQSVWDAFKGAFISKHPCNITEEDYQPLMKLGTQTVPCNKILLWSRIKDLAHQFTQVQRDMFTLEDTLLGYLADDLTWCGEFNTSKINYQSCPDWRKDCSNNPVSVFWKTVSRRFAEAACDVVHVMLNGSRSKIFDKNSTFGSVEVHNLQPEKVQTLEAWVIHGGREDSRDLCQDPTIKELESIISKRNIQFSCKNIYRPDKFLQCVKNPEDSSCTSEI
Assay: biochemical
Description: CD38 hydrolase buffer (4×) was thawed on ice and 1×CD38 hydrolase buffer was prepared by diluting 4×CD38 hydrolase buffer with water. CD38 hydrolase enzyme was diluted to […] with 1×CD38 hydrolase buffer (10 ng/well). Master mix was prepared by mixing equal volumes of water and CD38 hydrolase buffer (4×) and 10 μl of the mix was added to all the wells. Following master mix addition, 10 μl of the inhibitors and 20 μl of CD38 hydrolase enzyme were added to the wells. For wells designated blank, 10 μl and 20 μl of 1×CD38 hydrolase buffer was added respectively in place of CD38 enzyme and inhibitors. The plate was covered and incubated 30 min at room temperature with slow shaking at 400 rpm. After 30 min incubation, the plate was removed and 10 μl of diluted ε-NAD substrate was added to all the wells. The plate is incubated for 10 min, spun at 1200 rpm for 30 secs to remove bubbles and read in Tecan Spark using a fluorometer setting of excitation 300 nm and emission 410 nm. The reading for the blank was subtracted from all the values. IC50 for the test compounds were determined by using Graphpad prism software v7.0.

SMILES: COCCO[C@H]1CC[C@H](NC(=O)c2nc(-n3ccnc3)cc3cc[nH]c23)CC1 [Example 59, 5-(1H-imidazol-1-yl)-N-((1r,4r)-4-(2-methoxyethoxy)cyclohexyl)-1H-pyrrolo[2,3-c]pyridine-7-carboxamide]
- IC50: 6 nM
